Drawing on US8129377B2, “6-(pyridinyl)-4-pyrimidone derivates as tau protein kinase 1 inhibitors” (Mitsubishi Tanabe Pharma Corporation, priority 2004, dated 2012), this text covers IC50 for 30 compounds.

The structures appear in SMILES notation.

The target in the assay is T1, bovine cerebral TPK1 (Bos taurus, UniProt A0A3Q1MT31).
T1 construct: from tissue; host or cells: bovine brain (cerebrum)
T1 sequence (A0A3Q1MT31 1-419): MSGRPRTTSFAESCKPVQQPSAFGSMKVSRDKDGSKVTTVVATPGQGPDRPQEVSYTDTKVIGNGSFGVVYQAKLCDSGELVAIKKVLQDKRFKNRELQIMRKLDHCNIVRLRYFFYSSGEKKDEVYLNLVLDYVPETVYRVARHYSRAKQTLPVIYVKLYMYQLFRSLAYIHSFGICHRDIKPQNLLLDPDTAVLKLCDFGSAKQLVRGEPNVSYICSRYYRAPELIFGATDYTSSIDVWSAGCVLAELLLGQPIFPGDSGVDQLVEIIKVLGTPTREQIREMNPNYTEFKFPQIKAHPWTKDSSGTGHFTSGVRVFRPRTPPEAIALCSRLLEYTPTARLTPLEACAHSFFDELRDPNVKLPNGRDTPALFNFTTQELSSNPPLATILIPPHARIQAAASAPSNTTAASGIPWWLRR
The assay is described as follows: Inhibitory activity against P-GS1 phosphorylation by bovine cerebral TPK1. The settings on record: 41.7 μM [γ-32P] ATP, 25° C., 2 hours. The format is biochemical. The method, then: Experiment 1: Inhibitory Activity of the Medicament of the Present Invention Against P-GS1 Phosphorylation by Bovine Cerebral TPK1
A mixture containing 100 mM MES-sodium hydroxide (pH 6.5), 1 mM magnesium acetate, 0.5 mM EGTA, 5 mM β-mercaptoethanol, 0.02% Tween 20, 10% glycerol, 12 μg/ml P-GS1, 41.7 μM [γ^−32P] ATP (68 kBq/ml), bovine cerebral TPK1 and a compound shown in Table (a final mixture contained 1.7% DMSO deriving from a solution of a test compound prepared in the presence of 10% DMSO) was used as a reaction system. The phosphorylation was started by adding ATP, and the reaction was conducted at 25° C. for 2 hours, and then stopped by adding 21% perchloric acid on ice cooling. The reaction mixture was centrifuged at 12,000 rpm for 5 minutes and adsorbed on P81 paper (Whatmann), and then the paper was washed four times with 75 mM phosphoric acid, three times with water and once with acetone. The paper was dried, and the residual radioactivity was measured using a liquid scintillation counter.
In turn, `CC(=O)N1CCC(Oc2ccc([C@H]3CN(c4nc(-c5ccncc5F)cc(=O)n4C)CCO3)cc2)CC1` [compound 238, 2-((2S)-2-(4-(1-Acetylpiperidin-4-yloxy)phenyl)morpholin-4-yl)-6-(3-fluoropyridin-4-yl)-3-methyl-pyrimidin-4-one] yielded a concentration for half-maximal inhibition (IC50) of 6.4 nM.

`Cn1c(N2CCN[C@@H](c3ccc(N4CCN(c5ccccc5)CC4)cc3)C2)nc(-c2ccncc2F)cc1=O` [compound 22] came in with a concentration for half-maximal inhibition (IC50) of 0.53 nM.

Compound `COc1ccc(-c2ccc([C@H]3CN(c4nc(-c5ccncc5F)cc(=O)n4C)CCN3)cc2)cc1` [compound 41] returned a half-inhibitory concentration (IC50) of 0.73 nM.

`Cn1c(N2CCOC(c3ccc4c(c3)CCC(=O)N4)C2)nc(-c2ccncc2F)cc1=O` (stereo not drawn) [compound 305] registered a concentration for half-maximal inhibition (IC50) of 1.2 nM.

Take `Cn1c(N2CCC[C@H](c3ccc(Br)cc3)C2)nc(-c2ccncc2F)cc1=O` [compound 303, 2-((3R)-3-(4-Bromophenyl)piperidin-1-yl)-6-(3-fluoropyridin-4-yl)-3-methyl-3H-pyrimidine-4-one]: the 50% inhibitory concentration (IC50) stood at 6.2 nM.

In turn, `CN(c1ccc([C@H]2CN(c3nc(-c4ccncc4F)cc(=O)n3C)CCO2)cc1)[C@@H]1CCOC1` [compound 221, 6-(3-Fluoropyridin-4-yl)-2-((2S)-2-(4-(N-methyl-N-((3R)-tetrahydrofuran-3yl)amino)phenyl)morpholin-4-yl)-3-methyl-3H-pyrimidin-4-one] registered a 50% inhibitory concentration (IC50) of 3.9 nM.

On to `Cc1cc(C2CN(c3nc(-c4ccncc4F)cc(=O)n3C)CCO2)ccc1Br` (stereo not drawn) [compound 210], for which half-maximal inhibition (IC50) was put at 0.51 nM.

In turn, `CNc1cc(-c2cc(=O)n(C)c(N3CCO[C@@H](c4cc(C#N)ccc4OC)C3)n2)ccn1` [compound 196] registered an IC50 of 13 nM.

In turn, `Cn1c(N2CCN[C@@H](c3ccc(-c4ncon4)cc3)C2)nc(-c2ccncc2F)cc1=O` [compound 322, 6-(3-Fluoropyridin-4-yl)-3-methyl-2-((3S)-3-(4-([1,2,4]oxadiazol-3-yl)phenyl)piperazin-1-yl)-3H-pyrimidin-4-one] showed a 50% inhibitory concentration (IC50) of 4.8 nM.

As for `Cn1c(N2CCC(Nc3cccc(C(F)(F)F)c3)CC2)nc(-c2ccncc2F)cc1=O` [compound 105], half-maximal inhibition (IC50) required 8.2 nM.

In the case of `Cn1c(N2CCO[C@@H](c3ccc(N)cc3)C2)nc(-c2ccncc2F)cc1=O` [compound 158, 2-((2S)-2-(4-Aminophenyl)morpholin-4-yl)-6-(3-fluoropyridin-4-yl)-3-methyl-3H-pyrimidin-4-one], the midpoint of inhibition, the IC50, lay at 2.9 nM.

`CN(C)C(=O)Nc1ccc([C@H]2CN(c3nc(-c4ccncc4F)cc(=O)n3C)CCO2)cc1` [compound 298, N′-(4-((2S)-4-(6-(3-Fluoropyridin-4-yl)-3-methyl-4-oxo-3H-pyrimidin-2-yl)morpholin-2-yl)phenyl)-N,N-dimethylurea] returned an IC50 of 11 nM.

Consider `Cc1nc(-c2ccc([C@H]3CN(c4nc(-c5ccncc5F)cc(=O)n4C)CCN3)cc2)no1` [compound 334, 6-(3-Fluoropyridin-4-yl)-3-methyl-2-((3S)-3-(4-(5-methyl-[1,2,4]oxadiazol-3-yl)phenyl)piperazin-1-yl)-3H-pyrimidin-4-one], for which inhibition was half-maximal at 2.9 nM (IC50).

`Cn1c(N2CCO[C@@H](c3ccc(OCCN4CCOCC4)cc3)C2)nc(-c2ccncc2F)cc1=O` [compound 224] returned an IC50 of 1.1 nM.

`CC(=O)Nc1cccc([C@H]2CN(c3nc(-c4ccncc4F)cc(=O)n3C)CCO2)c1` [compound 314] displayed a half-inhibitory concentration (IC50) of 4.1 nM.

Turning to `COC(=O)Nc1ccc([C@H]2CN(c3nc(-c4ccncc4F)cc(=O)n3C)CCO2)cc1` [compound 295, Methyl (4-((2S)-4-(6-(3-fluoropyridin-4-yl)-3-methyl-4-oxo-3H-pyrimidin-2-yl)morpholin-2-yl)phenyl)carbamate], 1.2 nM corresponded to half-maximal inhibition (IC50).

The compound `Cn1c(N2CCO[C@@H](c3ccc(C(=O)N4CCOCC4)cc3)C2)nc(-c2ccncc2F)cc1=O` [compound 310] returned a half-maximal inhibitory concentration (IC50) of 7.4 nM.

Consider `Cn1c(N2CCO[C@@H](c3ccc(NC(=O)C(C)(C)C)cc3)C2)nc(-c2ccncc2F)cc1=O` [compound 215], for which half-maximal inhibition (IC50) was put at 4.2 nM.

As to `Cn1c(N2CCO[C@@H](c3ccc(N[C@@H]4CCOC4)cc3)C2)nc(-c2ccncc2F)cc1=O` [compound 220, 2-((2S)-2-(4-(N-((3R)-Tetrahydrofuran-3-yl)amino)phenyl)morpholin-4-yl)-3-methyl-6-(3-fluoropyridin-4-yl)-3H-pyrimidin-4-one], the IC50 amounted to 2.7 nM.

As to `COc1ccc(NC(C)=O)cc1[C@H]1CN(c2nc(-c3ccncc3F)cc(=O)n2C)CCO1` [compound 313], half-maximal inhibition (IC50) required 0.48 nM.

In turn, `Cn1c(N2CCO[C@@H](c3ccc(N4CCC(N5CCCC5)CC4)cc3)C2)nc(-c2ccncc2F)cc1=O` [compound 17] came in with an IC50 of 1.7 nM.

`Cn1c(N2CCO[C@@H](c3cc4ccccc4o3)C2)nc(-c2ccncc2F)cc1=O` [compound 4] showed an IC50 of 7.9 nM.

For the compound `Cn1c(N2CCN[C@@H](c3ccc(N4CCCCC4)cc3)C2)nc(-c2ccncc2F)cc1=O` [compound 14, 6-(3-Fluoro-pyridin-4-yl)-3-methyl-2-((3S)-3-(4-piperidin-1-yl-phenyl)-piperazin-1-yl)-3H-pyrimidin-4-one], the IC50 was 3.7 nM.

Take `COc1cc(Cl)ccc1[C@H]1CN(c2nc(-c3ccncc3Cl)cc(=O)n2C)CCO1` [compound 247]: the IC50 stood at 13 nM.

For the compound `Cn1c(N2CCO[C@@H](c3ccc(NC(=O)C4CCCCC4)cc3)C2)nc(-c2ccncc2F)cc1=O` [compound 209], the IC50 came out at 2.2 nM.

On to `Cn1c(N2CCO[C@@H](c3c(F)cccc3Cl)C2)nc(-c2ccncc2F)cc1=O` [compound 5], for which the concentration for half-maximal inhibition (IC50) came to 1.4 nM.

The compound `CN(C)CC(=O)Nc1ccc([C@H]2CN(c3nc(-c4ccncc4F)cc(=O)n3C)CCO2)cc1` [compound 288, N^2,N^2-Dimethyl-N^1-(4-((2S)-4-(3-methyl-4-oxo-3,4-dihydro-6-(3-fluoropyridin-4-yl)pyrimidin-2-yl)morpholin-2-yl)phenyl)glycinamide] gave a 50% inhibitory concentration (IC50) of 0.27 nM.

For `CC(C)Oc1ccc(-c2ccc([C@H]3CN(c4nc(-c5ccncc5F)cc(=O)n4C)CCN3)cc2)cc1` [compound 92], 1.2 nM corresponded to half-maximal inhibition (IC50).

Turning to `CN(c1ccc([C@H]2CN(c3nc(-c4ccncc4F)cc(=O)n3C)CCO2)cc1)c1ccccn1` [compound 212], the IC50 worked out at 5.4 nM.

Compound `Cn1c(N2CCC(c3ccc(N4CCCC4)cc3)CC2)nc(-c2ccncc2F)cc1=O` [compound 56] yielded a 50% inhibitory concentration (IC50) of 6.4 nM.

One may read the IC50 as the concentration that gives 50% inhibition. Read a high IC50 as a need for much substance.
